Values of other authors as cited in patent publication US8575311B2, “Collagen peptide conjugates and uses therefor” (Purdue Research Foundation, priority 2008, dated 2013).

Conditions: comparison value, conditions not given

Substance: (Pro-Hyp-Gly)9
- Tm of comparison peptide: 67 °C
